Source: patent publication US20240368181A1, “QUINOXALINE DERIVATIVES AND USES THEREOF” (Black Diamond Therapeutics, Inc., priority 2021, published 2024)

What was measured:
Assay type in all cases: cell-based
[1] = tested on: RT-112 (FGFR3-Tacc3 fusion) cells; assay: Cell proliferation assay (CellTiterGlo), RT-112 cells; conditions: RT112 cells, inhibition of cell growth, intracellular ATP (CellTiterGlo)
Description: (§1) The following is a non-limiting example that describes a cell proliferation assay used to determine the biological activity of the compounds of the present disclosure. More specifically, the assay as used to assess the ability of the compounds to inhibit cell proliferation.
(§2) Briefly, SNU-16 (FGFR2-amplification) cells, were resuspended at 18,520c/ml mL in RPMI containing 10% Heat Inactivated FBS, 1% L-glutamine and dispensed in duplicate (463c/well) into 384 well plates. UM-UC-14 (FGFR3-S249C) cells were resuspended at 40.000c/ml mL in RPMI containing 10% Heat Inactivated FBS, 1% L-glutamine and dispensed in duplicate (1000c/well) into 384 well plates. DMS-114 (FGFR1 overexpression) cells and were resuspended at 40,000c/ml mL in RPMI containing 10% Heat Inactivated FBS, 1% L-glutamine and dispensed in duplicate (1000c/well) into 384 well plates. RT-112 (FGFR3-Tacc3 fusion) cells were resuspended at 40,000c/ml mL in RPMI containing 10% Heat Inactivated FBS, 1% L-glutamine and dispensed in duplicate (1000c/well) into 384 well plates. To determine the effect of the compounds of the present disclosure on cell proliferation, SNU-16, UM-UC-14, DMS-114 and RT112 cells were incubated for 72 hours in the presence of vehicle control (DMSO) or a compound of the present disclosure at varying concentrations. Inhibition of cell growth was subsequently determined by luminescent quantification (Envision by Perkin Elmer) of intracellular ATP content using CellTiterGlo (Promega), according to the protocol provided by the manufacturer. To determine the IC50 values, the vehicle-treated cells were normalized as viable cells and analyzed using the CDD Vault software (Collaborative Drug Discovery, Burlingame, CA).

[2] = tested on: DMS-114 (FGFR1 overexpression) cells; assay: Cell proliferation assay (CellTiterGlo), DMS-114 cells; conditions: 72 hours, inhibition of cell growth, intracellular ATP (CellTiterGlo)
Description: as §1, §2

[3] = tested on: SNU-16 (FGFR2-amplification) cells; assay: Cell proliferation assay (CellTiterGlo), SNU-16 cells; conditions: Homo sapiens, SNU-16, 72 h, inhibition of cell growth, intracellular ATP (CellTiterGlo)
Description: as §1, §2

[4] = tested on: UM-UC-14 (FGFR3-S249C) cells; assay: Cell proliferation assay (CellTiterGlo), UM-UC-14 cells; conditions: inhibition of cell growth, intracellular ATP (CellTiterGlo)
Description: as §1, §2

Structure (SMILES) | IC50 [3] | IC50 ([1]; Homo sapiens, RT-112, 72 h) | IC50 ([2]; Homo sapiens) | IC50 ([4]; UMUC14, 72 h) | IC50 ([1]; 72 hours) | IC50 [2] | IC50 ([4]; 72 hours)
Cc1nc2ccc(Oc3cc4nc(-c5cnn(CC6CCN(C)CC6)c5)cnc4cc3C)cc2[nH]1 [Compound 50] | ≥ 400 nM | ≥ 400 nM | ≥ 400 nM | ≥ 400 nM | – | – | –
Cc1nc2ccc(Oc3ccc4ncc(-c5cn[nH]c5)nc4c3Cl)cc2[nH]1 [Compound 51] | ≥ 400 nM | 100 to 400 nM | ≥ 400 nM | ≥ 400 nM | – | – | –
Cc1nc2ccc(Oc3ccc4ncc(-c5c(C)nn(CC6CCN(C)CC6)c5C)nc4c3Cl)cc2[nH]1 [Compound 52] | 100 to 400 nM | 100 to 400 nM | ≥ 400 nM | 100 to 400 nM | – | – | –
Cc1nc2ccc(Oc3ccc4ncc(-c5cnn(CCC6CCN(C)CC6)c5)nc4c3)cc2[nH]1 [Compound 55] | 100 to 400 nM | 100 to 400 nM | ≥ 400 nM | 100 to 400 nM | – | – | –
Cc1nc2ccc(Oc3ccc4ncc(-c5cnn(CC6CCOCC6)c5)nc4c3Cl)cc2[nH]1 [Compound 59] | < 20 nM | – | – | – | < 20 nM | 100 to 400 nM | < 20 nM
Cc1nc2c(C#N)cc(Oc3ccc4ncc(-c5cnn(CC6CCOCC6)c5)nc4c3)cc2[nH]1 [Compound 60] | ≥ 400 nM | ≥ 400 nM | ≥ 400 nM | ≥ 400 nM | – | – | –
COc1cc(Oc2ccc3ncc(-c4cnn(CC5CCOCC5)c4)nc3c2)cc2[nH]c(C)nc12 [Compound 61] | ≥ 400 nM | ≥ 400 nM | ≥ 400 nM | ≥ 400 nM | – | – | –
Cc1nc2cc(Oc3ccc4ncc(-c5cnn(CC6CCOCC6)c5)nc4c3)ccc2[nH]1 [Compound 62] | 20 to 100 nM | 20 to 100 nM | ≥ 400 nM | 100 to 400 nM | – | – | –

Now from value to molecule, other results behind:

IC50 [3] | Structure (SMILES) | IC50 ([1]; Homo sapiens, RT-112, 72 h) | IC50 ([2]; Homo sapiens) | IC50 ([4]; UMUC14, 72 h) | IC50 ([1]; 72 hours) | IC50 [2] | IC50 ([4]; 72 hours)
100 to 400 nM | Cc1cn2ccc(Oc3ccc4ncc(-c5cnn(CC6CCN(C)CC6)c5)nc4c3Cl)cc2n1 [Compound 63] | 100 to 400 nM | ≥ 400 nM | ≥ 400 nM | – | – | –
100 to 400 nM | Cc1nc2ccc(Oc3ccc4ncc(-c5cc(CC6CCN(C)CC6)no5)nc4c3Cl)cc2[nH]1 [Compound 64] | 100 to 400 nM | ≥ 400 nM | 100 to 400 nM | – | – | –
≥ 400 nM | Cc1ccc2ccc(Oc3ccc4ncc(-c5cnn(CC6CCN(C)CC6)c5)nc4c3Cl)cc2n1 [Compound 65] | ≥ 400 nM | ≥ 400 nM | ≥ 400 nM | – | – | –
100 to 400 nM | Cc1nc2ccc(Oc3ccc4ncc(-c5cnn(C6CCC(F)(F)CC6)c5)nc4c3Cl)cc2[nH]1 [Compound 66] | 100 to 400 nM | ≥ 400 nM | 100 to 400 nM | – | – | –
20 to 100 nM | Cc1nc2ccc(Oc3ccc4ncc(-c5cnn(CC6(O)CC6)c5)nc4c3Cl)cc2[nH]1 [Compound 67] | 20 to 100 nM | ≥ 400 nM | 20 to 100 nM | – | – | –
20 to 100 nM | Cc1nc2ccc(Oc3ccc4ncc(-c5cnn(CC6CC(F)(F)C6)c5)nc4c3Cl)c(F)c2[nH]1 [Compound 68] | 20 to 100 nM | ≥ 400 nM | 20 to 100 nM | – | – | –
